Reference: patent US12214058B2, “Imaging methods using deuterated compounds” (Genentech, Inc., priority 2014, dated 2025)
Several values for one entry are separate records, joined by “and”; a condition that tells them apart may be missing. Equal entries are not always repeated.

Tests used:
[1] = Microsomal stability assay, human liver microsomes; assay type: in vitro ADME; settings: radiolabeled, 45 min incubation, n=3
Experimental: Microsomal stability assays The tracer [^18F][A]-d2 or [^18F][A] was dissolved in potassium phosphate (Kpi) buffer (100 mM) at concentration 500-600 μCi/mL. The non-radioactive 7 and 10 were dissolved in Kpi buffer at 10 μM concentration. The reaction vessel was charged with human or mouse liver microsome suspension (12.5 μL, 20 mg/mL) followed by Kpi buffer (388 μL, 10 mM), NADPH (50 μL, 10 mM) and incubated at 37° C. for 5-10 min. A solution of the radioactive [^18F][A]-d2 or [^18F][A] (50 μL, […]) or non-radioactive 7 or […] (50 μL, 10 μM) were added to the reaction vessel and the mixture was incubated at 37° C. […] The supernatant was analyzed by LCMS (System E).

[2] = Dynamic microPET imaging in mice; assay type: in vivo, mice (C57BL/6)
Experimental: MicroPET Imaging The PET imaging was performed on Inveon PET/CT scanner (Siemens Medical Solutions USA Inc.). Animals anesthetized with sevoflurane were placed head-first, prone position on the scanner bed and dynamic 45 min scans were initiated. Approximately 3.7 MBq of ^18F-radiolabeled tracer in isotonic solution (100-130 μL) was administered as 60 second intravenous infusion via the tail vein. Body temperature was measured by a rectal probe and maintained with warm air flow at 37° C. Full-body iterative image reconstructions were obtained using maximum a posteriori algorithm (MAP, hyperparameter β 0.05) and corrected for signal attenuation using the tissue density obtained from CT. Projections were created with PMOD 3.305 (PMOD Technologies, Ltd., Zurich, Switzerland) and used to obtain quantitative activity levels in each organ of interest using region-of-interest analysis.

tau = assay: Human PET imaging with [18F][A]-d2 (SUVR); assay type: in vivo; settings: for SUVR Frontal lobe / SUVR Occipital lobe / SUVR Parietal lobe / SUVR Temporal lobe / SUVR White matter: cerebellum gray as reference
Source text: A total of 5 subjects, 3 Alzheimer's disease (AD) patients and 2 healthy volunteers (HV) was used in this study. This study protocol required each subject to complete the following components: screening evaluation, MRI, [^18F]florbetapir (AD subjects only) and [^18F][A]-d2. The screening procedures included neuropsychological assessment, vital signs, ECG, physical exam, MRI, and [^18F]florbetapir PET imaging to confirm presence of amyloid deposition in patients clinically diagnosed with probable AD. In addition, each subject completed clinical assessments and clinical safety labs to ensure the subject was medically stable to complete the study protocol. The screening procedures occurred within 30 days prior to [^18F][A]-d2 imaging. Eligible subjects participated in a single [^18F][A]-d2 imaging session. The distribution of tau binding was assessed in each of the subject groups (AD and HV) to evaluate for binding to tau. For each AD subject, the distribution of Aβ and tau was compared. Tau binding in brain was assessed with PET using [^18F][A]-d2. Radioligand binding was compared in brains of HV subjects who should have minimal to negligible concentrations of tau compared to patients with AD, who are expected to have moderate to high densities of tau.
All subjects received a single injection of [^18F][A]-d2. Subjects received a bolus intravenous injection of no more than 370 MBq (˜10 mCi).
Images were acquired using a HR+ PET camera in three-dimensional mode and were reconstructed using an iterative algorithm including scatter and measured attenuation correction (^68Ge source). Dynamic images were acquired upon injection (˜370 MBq). The scanning protocol consisted of 2 scanning segments in the two healthy control (HC) subjects, Subjects 1 & 2 (0-120 min and ˜150-180 min) and of 3 segments in the suspected AD patient, Subject 3 (0-60 min, 93-123 min and 147-177 min).
The MR volumetric image, a summed image of the first 15 min after tracer administration of [^18F][A]-d2 were coregistered using Statistical Parametic Mapping SPM8 (software provided by members and collaborators of the Wellcome Trust Centre for Neuroimaging). Alignment of the additional PET segments to the first PET segment was performed using in-house developed analysis software written in Matlab® (version 8 Release 2014a). Then, using the MRI scan for anatomical delineation, irregular regions of interest (ROI) were drawn for each subject in the frontal, parietal, occipital, and temporal lobes, cerebellum gray, and white-matter (centrum semi-ovale) using MIM® software.
[^18F][A]-d2 tissue time activity curves (TAC) were expressed in SUV (Standardized Uptake Value) using each subject's weight and the corresponding tracer injected dose: TAC(SUV)=TAC(Bq/cm^3)×1000 cm^3/kg×Subject's weight(kg)/Injected dose(Bq). TAC creation and all subsequent analyses were performed using in-house developed analysis software written in Matlab®.
The ratio to cerebellum gray or standardized uptake value ratio (SUVR) was calculated. […] A clear separation of the curves is observed as early as 30 min post injection. The SUVR curves in the two healthy controls remained relatively constant soon after injection. The SUVR in the AD subject reached a plateau in the 90-120 min interval.

[3] = 40-60 min interval, Subject 1 (HC)
[4] = 40-60 min interval, Subject 2 (HC)
[5] = 40-60 min interval, Subject 3 (AD)
[6] = 90-120 min interval, Subject 1 (HC)
[7] = 90-120 min interval, Subject 2 (HC)
[8] = 90-120 min interval, Subject 3 (AD)

## [2H]C([2H])([18F])CC1CCN(c2ccn3c(n2)nc2ccccc23)CC1 [[^18F][A]-d2, 1,1-dideutero-2-(1-(benzo[4,5]imidazo[1,2-a]pyrimidine-2-yl)piperidin-4-yl)-1-[^18F]fluoroethane]
[1]
  fraction attributed to parent compound: 91.7±0.21% and 67.1±6.3%
[2]; in vivo PET
  reduction in bone uptake versus [18F][A]: ~54%
[2]; n=6
  uptake in liver and kidneys, comparison of the two tracers: indistinguishable
[2]; n=6, 30-45 min post tracer injection
  bone uptake: 14.3±1.7 % ID/g
[2]; n=6, i.v., dynamic PET
  peak uptake in brain: 7.4±2.2 % ID/g
tau; [3]
  SUVR Frontal lobe: 1.08
  SUVR Occipital lobe: 1.15
  SUVR Parietal lobe: 1.09
  SUVR Temporal lobe: 1.14
  SUVR White matter: 0.85
tau; [4]
  SUVR Frontal lobe: 1.12
  SUVR Occipital lobe: 1.19
  SUVR Parietal lobe: 1.13
  SUVR Temporal lobe: 1.18
  SUVR White matter: 0.80
tau; [5]
  SUVR Frontal lobe: 1.16
  SUVR Occipital lobe: 1.60
  SUVR Parietal lobe: 1.35
  SUVR Temporal lobe: 1.82
  SUVR White matter: 0.88
tau; [6]
  SUVR Frontal lobe: 1.07
  SUVR Occipital lobe: 1.19
  SUVR Parietal lobe: 1.07
  SUVR Temporal lobe: 1.13
  SUVR White matter: 0.76
tau; [7]
  SUVR Frontal lobe: 1.17
  SUVR Occipital lobe: 1.21
  SUVR Parietal lobe: 1.07
  SUVR Temporal lobe: 1.18
  SUVR White matter: 0.66
tau; [8]
  SUVR Frontal lobe: 1.25
  SUVR Occipital lobe: 1.87
  SUVR Parietal lobe: 1.52
  SUVR Temporal lobe: 2.25
  SUVR White matter: 0.81
tau; Subjects 1-3, human PET images
  radioactivity uptake in bone tissue: no radioactivity uptake in bone tissue
